In ChEMBL document CHEMBL1201862, “PubChem BioAssay data set” (2004):
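Interpolation was linear, between the two tested concentrations surrounding the appropriate level; five concentrations were tested over 48 hours in 96-well plates. GI50 is the concentration that inhibits growth by half.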 Activity calls are given as the source filed them. Cut-off read from the data, not from the text of the source: active = GI50 up to about 1.1 µM and inactive = higher.

Columns and labels:
Assay in all cases: inhibition of tumour cell growth, NCI panel, 48 h
[1] = tested on: 786-0
[2] = tested on: A498
[3] = tested on: A549
[4] = tested on: ACHN
[5] = tested on: BT-549
[6] = tested on: CAKI-1
[7] = tested on: CCRF-CEM
[8] = tested on: COLO 205
[9] = tested on: DU-145
[10] = tested on: EKVX
[11] = tested on: HCC 2998
[12] = tested on: HCT-116
[13] = tested on: HCT-15
[14] = tested on: HL-60
[15] = tested on: HOP-62
[16] = tested on: HOP-92
[17] = tested on: HT-29
[18] = tested on: Hs-578T
[19] = tested on: IGROV-1
[20] = tested on: K562
[21] = tested on: KM12
[22] = tested on: LOX IMVI
[23] = tested on: M14
[24] = tested on: MCF7
[25] = tested on: MDA-MB-231
[26] = tested on: MDA-MB-435
[27] = tested on: MDA-N
[28] = tested on: MOLT-4
[29] = tested on: Malme-3M
[30] = tested on: NCI-H226
[31] = tested on: NCI-H23
[32] = tested on: NCI-H460
[33] = tested on: NCI-H522
[34] = tested on: NCI/ADR-RES
[35] = tested on: OVCAR-3
[36] = tested on: OVCAR-4
[37] = tested on: OVCAR-5
[38] = tested on: OVCAR-8
[39] = tested on: PC-3
[40] = tested on: RPMI-8226
[41] = tested on: RXF 393
[42] = tested on: SF-268
[43] = tested on: SF-295
[44] = tested on: SK-MEL-28
[45] = tested on: SK-MEL-2
[46] = tested on: SK-MEL-5
[47] = tested on: SK-OV-3
[48] = tested on: SN12C
[49] = tested on: SNB-19
[50] = tested on: SNB-75
[51] = tested on: SR
[52] = tested on: SW-620
[53] = tested on: T47D
[54] = tested on: TK-10
[55] = tested on: U-251
[56] = tested on: UACC-257
[57] = tested on: UACC-62
[58] = tested on: UO-31

For `CN(C)c1n2c3cc([N+](=O)[O-])ccc3[n+]3c(N(C)C)n4ccccc4c3c2c2cccc[n+]12.[O-][Cl+3]([O-])([O-])[O-].[O-][Cl+3]([O-])([O-])[O-]`, the GI50 [1] was > 100 µM (inactive), the GI50 [2] was > 100 µM (inactive) and the GI50 [3] was > 100 µM (inactive). The GI50 [4] was > 100 µM (inactive), the GI50 [5] was > 100 µM (inactive) and the GI50 [6] was > 100 µM (inactive). For the same compound, the GI50 [7] was > 100 µM (inactive), the GI50 [8] was > 100 µM (inactive) and the GI50 [9] was > 100 µM (inactive). For the same compound, the GI50 [10] was > 100 µM (inactive), the GI50 [11] was > 100 µM (inactive) and the GI50 [12] was > 100 µM (inactive). For the same compound, the GI50 [13] was > 100 µM, the GI50 [14] was > 100 µM (inactive) and the GI50 [15] was > 100 µM (inactive). The GI50 [16] was > 100 µM (inactive), the GI50 [17] was > 100 µM (inactive) and the GI50 [18] was 29.9 µM (inactive). For the same compound, the GI50 [19] was > 100 µM (inactive), the GI50 [20] was > 100 µM (inactive) and the GI50 [21] was > 100 µM (inactive). The GI50 [22] was > 100 µM (inactive), the GI50 [23] was > 100 µM (inactive) and the GI50 [24] was 8.57 µM (inactive). The GI50 [25] was > 100 µM (inactive), the GI50 [26] was > 100 µM (inactive) and the GI50 [27] was > 100 µM (inactive). For the same compound, the GI50 [28] was > 100 µM (inactive), the GI50 [29] was > 100 µM (inactive) and the GI50 [30] was > 100 µM (inactive). For the same compound, the GI50 [31] was > 100 µM (inactive), the GI50 [32] was > 100 µM (inactive) and the GI50 [33] was 34.9 µM (inactive). The GI50 [34] was > 100 µM (inactive), the GI50 [35] was > 100 µM (inactive) and the GI50 [36] was > 100 µM (inactive). For the same compound, the GI50 [37] was > 100 µM (inactive), the GI50 [38] was > 100 µM (inactive) and the GI50 [39] was > 100 µM (inactive). The GI50 [40] was > 100 µM (inactive), the GI50 [41] was > 100 µM (inactive) and the GI50 [42] was 29.7 µM (inactive). For the same compound, the GI50 [43] was > 100 µM (inactive), the GI50 [44] was > 100 µM (inactive) and the GI50 [45] was > 100 µM (inactive). For the same compound, the GI50 [46] was > 100 µM (inactive), the GI50 [47] was > 100 µM (inactive) and the GI50 [48] was 38.9 µM (inactive). For the same compound, the GI50 [49] was 43.1 µM (inactive), the GI50 [50] was > 100 µM (inactive) and the GI50 [51] was > 100 µM (inactive). The GI50 [52] was > 100 µM (inactive), the GI50 [53] was 73.3 µM (inactive) and the GI50 [54] was > 100 µM (inactive). The GI50 [55] was 51.1 µM (inactive), the GI50 [56] was > 100 µM (inactive) and the GI50 [57] was > 100 µM (inactive). The GI50 [58] was > 100 µM (inactive).
